Results published in US5302610A, “Renal-selective biphenylmethyl imidazole angiotensin II antagonists for treatment of hypertension” (G. D. Searle & Co., priority 1991, dated 1994).

How the values were obtained:
[1] = tested on: vascular smooth muscle, AII response (rabbit aortic rings); assay: Assay B: In Vitro Vascular Smooth Muscle Response for AII (rabbit aortic rings); type: cell-based, rabbit (male New Zealand white); settings: Oryctolagus cuniculus, 5 min, antagonist 10^-5 M, three rabbits, read-out: Assay B PA2 (converted)
Procedure: Compound of Example #5 was tested for AII antagonist activity in rabbit aortic rings. Male New Zealand white rabbits (2-2.5 kg) were sacrificed using an overdose of pentobarbital and exsanguinated via the carotid arteries. The thoracic aorta was removed, cleaned of adherent fat and connective tissue and then cut into 3-mm ring segments. The endothelium was removed from the rings by gently sliding a rolled-up piece of filter paper into the vessel lumen. The rings were then mounted in a water-jacketed tissue bath, maintained at 37° C., between moveable and fixed ends of a stainless steel wire with the moveable end attached to an FT03 Grass transducer coupled to a Model 7D Grass Polygraph for recording isometric force responses. The bath was filled with 20 ml of oxygenated (95% oxygen/5% carbon dioxide) Krebs solution of the following composition […]: 130 NaCl, 15 NaHCO3, 15 KCl, 1.2 NaH2 PO4, 1.2 MgSO4, 2.5 CaCl2, and 11.4 glucose. The preparations were equilibrated for one hour before approximately one gram of passive tension was placed on the rings. Angiotensin II concentration-response curves were then recorded (3×10^-10 to 1×10^-5 M). […] The effectiveness of the test compound was expressed in terms of pA2 values and were calculated according to H. O. Schild [Br. J. Pharmacol. Chemother., 189-206 (1947)]. […] The test compound was evaluated in aorta rings from three rabbits.

[2] = tested on: response to angiotensin II (urinary sodium excretion); assay: Assay E: Urinary Sodium Excretion, acute administration with AII infusion; type: in vivo, male Sprague-Dawley rats, conscious; settings: for Urinary Sodium Excretion: means±SE
Procedure: antagonist compound (Ex. #5) and a glutamyl conjugate (Ex. #81) of the Ex. #5 AII antagonist compound to determine the renal selectivity of the conjugate. Male Sprague-Dawley rats (300-350 g body weight) had catheters implanted into the femoral artery and vein under chloral hydrate anesthesia (400 mg/kg, i.p.). After 2 to 4 days of recovery, on the experimental day, a urinary bladder catheter was implanted under methohexital anesthesia (50 mg/kg, i.p.). Rats were placed in a restraint device to allow for urine collection and mean arterial pressure measurements. After 1-2 hours of recovery, in conscious rats, an isotonic saline infusion (50 μl/min) was started and continued for the duration of the experiment. After one hour equilibration to the saline infusion, a 20 minute control urine and mean arterial pressure collection were obtained. Then angiotensin II was infused at 20 ng/min for 25 minutes. After 5 minutes of angiotensin II infusion, a 20 minute experimental collection was made. Finally, 5 minutes after the end of angiotensin II infusion, a 20 minute recovery collection was obtained. In separate groups of rats, vehicle (0.3 ml isotonic saline, i.v. bolus), Example #5 angiotensin II antagonist compound (100 mg/kg, i.v. bolus), or Example #81 conjugate (100 mg/kg, i.v. bolus) was administered 1-2 minutes prior to onset of angiotensin II infusion. […] Results are shown in Tables XIII and XIV and also in FIGS. 3 and 4. Data are presented as means±SE. Repeated measures analysis of variance was used for main effects and interactions and Tukey's HSD test was used for pairwise comparisons among means. Statistical significance was defined as p<0.05.

AII receptor = assay: Assay C: In Vivo Intravenous Pressor Assay Response for AII Antagonists; set-up: species or system male Sprague-Dawley rats, ganglion-blocked
Procedure: The in vivo AII receptor antagonist activity of Example #5 compound was examined in ganglion-blocked male Sprague-Dawley rats (Harlan Sprague-Dawley, Inc.), weighing 300-400 g, anesthetized with 100 mg/kg i.p. Inactin. Catheters (PE-50) were implanted in a femoral artery and vein to measure mean arterial pressure and to administer compounds, respectively. A tracheal catheter maintained airway patency. For intravenous experiments, autonomic neurotransmission was blocked by treatment with mecamylamine (3 mg/kg i.v.) and atropine (400 μg/kg i.v.). AII (30 ng/kg i.v., 20-25 μl volume) was administered four times at 10 minute intervals to establish a reproducible control pressor response. Example #5 compound was then administered at 1, 3 and 10 mg/kg in separate groups of rats as an intravenous bolus (0.2 ml volume) before rechallenging with AII (30 ng/kg, 20-25 μl volume) for the following 2 hours. For intraduodenal experiments, rats were anesthetized as above, but ganglion blockade was not performed. AII was administered at 100 ng/kg i.v. (20-25 μl volume), and was administered at 10, 30 and 100 mg/kg in separate groups of rats as an intraduodenal bolus (0.2 ml volume). Angiotensin II injections were then given 5, 10, 20, 30, 45, 60, 75, 90, and 120 minutes after administration of the test compound and response of arterial pressure was monitored. The response to AII was calculated as percent of the control response and then the percent inhibition was calculated as 100 minus the percent control response. Duration of action of a test compound was defined as the time from peak percent inhibition to 50% of peak. The test compound was tested in two rats and the values for the two rats were averaged.

`CCCCc1nc(Cl)c(CO)n1Cc1ccc(-c2ccccc2C(=O)O)cc1` [Example 5] was tested, and the Kb [1] was 74.1 nM, the “Urinary Sodium Excretion” value ([2]; 100 mg/kg i.v. bolus, Recovery after AII infusion) was 2.6 ± 0.7 μEq/min/100 g BW and the “Urinary Sodium Excretion” value ([2]; 100 mg/kg i.v. bolus, during AII infusion 20 ng/min, * in table) was 2.5 ± 1.1 μEq/min/100 g BW. For the same compound, the “antinatriuretic (urinary sodium excretion) response to angiotensin II” value ([2]; 100 mg/kg, i.v. bolus, AII 20 ng/min) was “prevented both responses to angiotensin II”, the “Urinary Sodium Excretion” value ([2]; Control period (before dosing)) was 2.4 ± 0.5 μEq/min/100 g BW and the “% Control of AII Pressor Response” value (AII receptor; 1 mg/kg i.v., 1 min) was 80%. For the same compound, the “% Control of AII Pressor Response” value (AII receptor; 1 mg/kg i.v., 5 min) was 85%, the “% Control of AII Pressor Response” value (AII receptor; 1 mg/kg i.v., 10 min) was 92% and the “% Control of AII Pressor Response” value (AII receptor; 1 mg/kg i.v., 20 min) was 90%. For the same compound, the “% Control of AII Pressor Response” value (AII receptor; 1 mg/kg i.v., 30 min) was 88%, the “% Control of AII Pressor Response” value (AII receptor; 1 mg/kg i.v., 40 min) was 86% and the “% Control of AII Pressor Response” value (AII receptor; 1 mg/kg i.v., 50 min) was 86%. The “% Control of AII Pressor Response” value (AII receptor; 1 mg/kg i.v., 60 min) was 89%, the “% Control of AII Pressor Response” value (AII receptor; 1 mg/kg i.v., 75 min) was 93% and the “% Control of AII Pressor Response” value (AII receptor; 1 mg/kg i.v., 90 min) was 95%. For the same compound, the “% Control of AII Pressor Response” value (AII receptor; 1 mg/kg i.v., 120 min) was 100%, the “% Control of AII Pressor Response” value (AII receptor; 3 mg/kg i.v., 1 min) was 39% and the “% Control of AII Pressor Response” value (AII receptor; 3 mg/kg i.v., 5 min) was 55%. For the same compound, the “% Control of AII Pressor Response” value (AII receptor; 3 mg/kg i.v., 10 min) was 63%, the “% Control of AII Pressor Response” value (AII receptor; 3 mg/kg i.v., 20 min) was 68% and the “% Control of AII Pressor Response” value (AII receptor; 3 mg/kg i.v., 30 min) was 74%. For the same compound, the “% Control of AII Pressor Response” value (AII receptor; 3 mg/kg i.v., 40 min) was 75%, the “% Control of AII Pressor Response” value (AII receptor; 3 mg/kg i.v., 50 min) was 75% and the “% Control of AII Pressor Response” value (AII receptor; 3 mg/kg i.v., 60 min) was 81%. For the same compound, the “% Control of AII Pressor Response” value (AII receptor; 3 mg/kg i.v., 75 min) was 88%, the “% Control of AII Pressor Response” value (AII receptor; 3 mg/kg i.v., 90 min) was 92% and the “% Control of AII Pressor Response” value (AII receptor; 3 mg/kg i.v., 120 min) was 98%. For the same compound, the “% Control of AII Pressor Response” value (AII receptor; 10 mg/kg i.v., 1 min) was 4%, the “% Control of AII Pressor Response” value (AII receptor; 10 mg/kg i.v., 5 min) was 16% and the “% Control of AII Pressor Response” value (AII receptor; 10 mg/kg i.v., 10 min) was 23%. The “% Control of AII Pressor Response” value (AII receptor; 10 mg/kg i.v., 20 min) was 31%, the “% Control of AII Pressor Response” value (AII receptor; 10 mg/kg i.v., 30 min) was 40% and the “% Control of AII Pressor Response” value (AII receptor; 10 mg/kg i.v., 40 min) was 47%. For the same compound, the “% Control of AII Pressor Response” value (AII receptor; 10 mg/kg i.v., 50 min) was 51%, the “% Control of AII Pressor Response” value (AII receptor; 10 mg/kg i.v., 60 min) was 60% and the “% Control of AII Pressor Response” value (AII receptor; 10 mg/kg i.v., 75 min) was 71%. The “% Control of AII Pressor Response” value (AII receptor; 10 mg/kg i.v., 90 min) was 80% and the “% Control of AII Pressor Response” value (AII receptor; 10 mg/kg i.v., 120 min) was 96%.
